The record followed here is patent US8173133B2, “Acyl pseudodipeptides which carry a functionalized auxiliary arm” (OM Pharma, priority 1999, dated 2012).

This data set is described as follows: pyrogenicity in the rabbit model. It counts as in vivo, New Zealand white rabbits. Particulars: for response in ° C. average (individual values): 3 rabbits.

Values joined by “and” are separate entries in the source; they are usually repeats but may differ in a detail not shown here. Equal entries are not always repeated.

On to `CCCCCCCCCCCC(=O)O[C@H](CCCCCCCCCCC)CC(=O)N[C@H](CC(=O)O)C(=O)NCCC[C@H](COP(=O)(O)O)NC(=O)C[C@H](O)CCCCCCCCCCC` [OM-197-MC-MP, N—[(R)-3-dodecanoyloxytetradecanoyl]-D-aspartic acid, α-N-{(4R)-5-dihydroxyphosphoryloxy-4-[(R)-3-hydroxytetradecanoyl-amino]pentyl}amide], for which the “pyrogenicity Results” value by setting is: (0.001 mg/Kg i.v.) “non pyrogenic”; (0.01 mg/Kg i.v.) “non pyrogenic”; (0.1 mg/Kg i.v.) “pyrogenic”; (1 mg/Kg i.v.) “pyrogenic”. Besides, the “response in ° C. average (individual values)” value reads like this: (0.001 mg/Kg i.v.) 0.35 (0.10, 0.05, 0.20) ° C. and 0.25 (0.00, 0.10, 0.15) ° C; (0.01 mg/Kg i.v.) 0.65 (0.00, 0.45, 0.20) ° C. and 0.35 (0.20, 0.15, 0.00) ° C; (0.1 mg/Kg i.v.) 2.00 (1.45, 0.05, 0.50) ° C. and 2.85 (1.10, 1.20, 0.55) ° C; (1 mg/Kg i.v.) 3.40 (1.50, 0.60, 1.30) ° C. and 3.25 (1.25, 1.45, 0.55) ° C.
